Test: xn = mol fraction of the nth substance listed

COc1ccccc1 + CCOC(=O)OCC
viscosity [mPa·s], 100 kPa
Settings	x2 = 0.1064	x2 = 0.203	x2 = 0.3032	x2 = 0.3994	x2 = 0.499	x2 = 0.6007	x2 = 0.7032	x2 = 0.7988	x2 = 0.8975
303.15 K	0.894	0.867	0.84	0.817	0.793	0.771	0.75	0.731	0.714
308.15 K	0.824	0.801	0.778	0.759	0.738	0.719	0.702	0.687	0.673
313.15 K	0.767	0.748	0.729	0.711	0.694	0.677	0.662	0.649	0.636

C1CCOC1 + CCOC(C)=O
101.32 kPa
Settings	viscosity [mPa·s]
303.15 K, x2 = 0.0431	0.443
303.15 K, x2 = 0.0837	0.437
303.15 K, x2 = 0.128	0.434
303.15 K, x2 = 0.1718	0.431
303.15 K, x2 = 0.2625	0.425
303.15 K, x2 = 0.3504	0.421
303.15 K, x2 = 0.4521	0.416
303.15 K, x2 = 0.6544	0.41
303.15 K, x2 = 0.8229	0.407
303.15 K, x2 = 0.8817	0.407
303.15 K, x2 = 0.9396	0.406
313.15 K, x2 = 0.2044	0.384
313.15 K, x2 = 0.4059	0.375
313.15 K, x2 = 0.5072	0.373
313.15 K, x2 = 0.6002	0.37
313.15 K, x2 = 0.7996	0.369

CC(C)=O + CCOC(C)=O
viscosity [mPa·s], 101 kPa
Settings	x2 = 0.0999	x2 = 0.2009	x2 = 0.3284	x2 = 0.4015	x2 = 0.4977	x2 = 0.5969	x2 = 0.6915	x2 = 0.7908	x2 = 0.9076
293.15 K	0.3328	0.3471	0.3615	0.3751	0.3871	0.4003	0.4129	0.4274	0.4419
298.15 K	0.317	0.3305	0.3438	0.3563	0.3674	0.3795	0.3913	0.4035	0.4179
303.15 K	0.3022	0.3151	0.3274	0.3375	0.3502	0.3603	0.3716	0.3825	0.3961
313.15 K	0.2757	0.2877	0.2982	0.3065	0.3182	0.3262	0.3364	0.3455	0.3573

CCCCn1cc[n+](C)c1.O=S(=O)([O-])C(F)(F)F + CCOC(C)=O
100 kPa
Settings	viscosity [mPa·s]
298.15 K, x1 = 0.8932	54.68
303.15 K, x1 = 0.3056	8.97
308.15 K, x1 = 0.3056	7.31
313.15 K, x1 = 0.3056	6.63
313.15 K, x1 = 0.3978	9.79
318.15 K, x1 = 0.3056	5.79
323.15 K, x1 = 0.3056	4.97
323.15 K, x1 = 0.3978	7.21
323.15 K, x1 = 0.5067	9.88

C1CCOC1 + CN(C)C=O
viscosity [mPa·s], 101 kPa
Settings	x2 = 0.0988	x2 = 0.1978	x2 = 0.2971	x2 = 0.3967	x2 = 0.4966	x2 = 0.5967	x2 = 0.6971	x2 = 0.7978	x2 = 0.8988
298.15 K	0.47	0.482	0.496	0.518	0.547	0.586	0.63	0.679	0.737
308.15 K	0.434	0.444	0.458	0.476	0.502	0.533	0.57	0.614	0.659
318.15 K	0.41	0.431	0.454	0.478	0.502	0.523	0.545	0.568	0.592

CC(C)=O + CN(C)C=O
298.15 K, 101 kPa
Settings	viscosity [mPa·s]
x2 = 0.0367	0.32
x2 = 0.09776	0.343
x2 = 0.136	0.369
x2 = 0.2182	0.378
x2 = 0.394	0.457
x2 = 0.4912	0.499
x2 = 0.6429	0.565
x2 = 0.8008	0.646

CC1COC(=O)O1 (configuration not stated) + CN(C)C=O
101.33 kPa
Settings	viscosity [mPa·s]
298.15 K, x1 = 0.1053	0.89
298.15 K, x1 = 0.1593	0.942
298.15 K, x1 = 0.2227	1.004
298.15 K, x1 = 0.2607	1.047
298.15 K, x1 = 0.3155	1.107
298.15 K, x1 = 0.3624	1.164
298.15 K, x1 = 0.4248	1.246
298.15 K, x1 = 0.4476	1.278
298.15 K, x1 = 0.5094	1.37
298.15 K, x1 = 0.5658	1.462
298.15 K, x1 = 0.6334	1.582
298.15 K, x1 = 0.659	1.63
298.15 K, x1 = 0.7108	1.742
298.15 K, x1 = 0.7559	1.835
298.15 K, x1 = 0.8147	1.983
298.15 K, x1 = 0.8705	2.117
298.15 K, x1 = 0.9299	2.284
298.15 K, x1 = 0.954	2.357
308.15 K, x1 = 0.0453	0.742
308.15 K, x1 = 0.1078	0.787
308.15 K, x1 = 0.1606	0.828
308.15 K, x1 = 0.2114	0.87
308.15 K, x1 = 0.2565	0.91
308.15 K, x1 = 0.2989	0.95
308.15 K, x1 = 0.3551	1.005
308.15 K, x1 = 0.4045	1.058
308.15 K, x1 = 0.4505	1.109
308.15 K, x1 = 0.4988	1.167
308.15 K, x1 = 0.5351	1.213
308.15 K, x1 = 0.6158	1.33
308.15 K, x1 = 0.6532	1.38
308.15 K, x1 = 0.7153	1.48
308.15 K, x1 = 0.7499	1.539
308.15 K, x1 = 0.802	1.638
308.15 K, x1 = 0.8517	1.731
308.15 K, x1 = 0.9033	1.841
318.15 K, x1 = 0.049	0.664
318.15 K, x1 = 0.0961	0.694
318.15 K, x1 = 0.1672	0.74
318.15 K, x1 = 0.2118	0.772
318.15 K, x1 = 0.2639	0.811
318.15 K, x1 = 0.3122	0.849
318.15 K, x1 = 0.3528	0.884
318.15 K, x1 = 0.4228	0.946
318.15 K, x1 = 0.4487	0.97
318.15 K, x1 = 0.4941	1.015
318.15 K, x1 = 0.5567	1.081
318.15 K, x1 = 0.6184	1.152
318.15 K, x1 = 0.6678	1.216
318.15 K, x1 = 0.7127	1.271
318.15 K, x1 = 0.7415	1.311
318.15 K, x1 = 0.8179	1.424
318.15 K, x1 = 0.8689	1.505
318.15 K, x1 = 0.9013	1.56

— the CheMixHub viscosity set
